What was measured:
human DA D2L receptor [1] = molecular target: T1, human DA D2L receptor (Homo sapiens, UniProt P14416); assay: cAMP accumulation, HEK […] cells; type: cell-based; settings: read-out: cAMP / Potency (converted)
T1 construct: gene DRD2; full-length D2L stably expressed in HEK 293 cells

human DA D2L receptor [2] = molecular target: T1, human DA D2L receptor; assay: 3H-spiperone radioligand binding, membranes; settings: read-out: pK i D 2 -high (converted)
Text: 3H-spiperone radioligand binding, membranes on human DA D2L receptor

T1 sequence (P14416 whole entry): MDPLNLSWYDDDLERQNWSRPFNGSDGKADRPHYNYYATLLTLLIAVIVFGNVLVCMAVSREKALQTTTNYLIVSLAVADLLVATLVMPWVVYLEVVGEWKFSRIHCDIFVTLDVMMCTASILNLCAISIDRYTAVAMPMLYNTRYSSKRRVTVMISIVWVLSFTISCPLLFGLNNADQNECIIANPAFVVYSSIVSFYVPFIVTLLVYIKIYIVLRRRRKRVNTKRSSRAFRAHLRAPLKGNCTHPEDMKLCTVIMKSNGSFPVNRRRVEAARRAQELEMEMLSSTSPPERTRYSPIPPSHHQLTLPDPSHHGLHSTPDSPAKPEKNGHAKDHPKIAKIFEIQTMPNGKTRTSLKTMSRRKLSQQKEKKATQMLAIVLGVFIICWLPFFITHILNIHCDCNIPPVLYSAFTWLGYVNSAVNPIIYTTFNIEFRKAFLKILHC

EC50 (human DA D2L receptor [1]): 0.832 nM | Ki (human DA D2L receptor [2]): 102 nM
SMILES: CCN1CCC[C@H]1CNC(=O)c1c(OC)ccc(I)c1O [IBZM]

Source: publication PMC4422956 (EJNMMI Research, 2014)
